According to patent US20210108198A1, “APPLICATION OF COMPOUND OR TRADITIONAL CHINESE MEDICINE EXTRACT IN PREPARATION OF NUCLEIC ACID DELIVERY AGENT AND RELATED PRODUCTS THEREOF” (INSTITUTE OF BASIC MEDICAL SCIENCES CHINESE ACADEMY OF …, priority 2017, published 2021):

Tests used:
A549 cell = assay: RT-qPCR detection of nucleic acid delivered by lipid into A549 cells; type: cell-based, human; details: various small RNA 200 nM; reverse evaporation method; 3 hours; compared with the control; FIG. 11A-C
Description: 3.1 NCI-N87 cell (gastric cancer cell), MRC-5 cell (lung fibroblast), A549 cell (lung cancer cell) were cultured to logarithmic growth phase, and then plated to a six-well plate at cell density of 1×10^6/2 mL medium/well; MRC-5 cell was cultured in Eagle's MEM medium (MEM, Gibco); A549 cell was cultured in Ham's F-12 medium (HyClone); NCI-N87 cell was cultured in RPMI-1640 medium (HyClone); followed by incubation overnight at 37° C., and the follow-up experiments were performed after the cells were attached to the walls.
4) Lipid nucleic acid mixture: the mixture of lipid and HJT-sRNA-m7 prepared from the step 2 were added into cells and mixed, and the final concentration of RNA was kept at 200 nM.
3.3 After co-incubation with the small RNA for 3 hours, the cells were washed 2-3 times with PBS. The cells were harvested with TRIzol lysis buffer, and the total RNA was extracted. The abundance of small RNA that entered cells was detected by RT-qPCR, and the localization of RNA was detected by fluorescence in situ hybridization; protocols of each detection method were as follows:
3.3.1 RT-qPCR Detection of Small RNA (Taqman Probe Method)
3.3.2 RT-qPCR Detection of Small RNA (SYBR Green Dye Method)
(§1) Mixtures of soybean PC, lipid No. 11 (18:0/18:2) and lipid No. 12 (16:0/18:2), and various small RNA (see below Table 3) were prepared by the reverse evaporation method and then added into A549 cell line (the final concentration of sRNA was 200 nM); the negative control group (control) was directly added with the same concentration of sRNA; the positive control group (RNAimax) was transfected with Lipofectamine RNAimax (transfection reagent 6 μl/well). The abundance of sRNA in the cells was detected by Taqman probe after 3 hours, and the relative expression level of sRNA was calculated by 2-ΔCt method.
3.1.3 After co-incubation with cells for 12-24 hours, the cells were washed twice with PBS. The cells were harvested with TRIzol lysis buffer (purchased from Sigma-Aldrich), and total RNA was extracted. The abundance of HJT-sRNA-m7 that entered the cells was detected by RT-qPCR; the protocols were as follows:
4368813) was used to reverse transcribe sRNA to cDNA by stem-loop method (see, e.g. Real-time quantification of microRNAs by stem-loop RT-PCR, Nucleic Acids Res. 2005 Nov. 27; 33(20):e179, incorporated by reference herein).

A549 cell line = assay: Fluorescence in situ hybridization (FISH) of small RNA delivered by lipid; type: cell-based, human; details: reverse evaporation method; FIG. 12
Description: 3.3.3 Fluorescence In Situ Hybridization (FISH) of Small RNA
9) The culture plate was placed in a hybridization cassette in hybridization buffer (50% formamide, 5×SSC, 5× Denharts, 250 μg/mL yeast RNA, 500 μg/mL herring sperm DNA) and pre-incubated at room temperature for 1 hour.
10) Add RNA probes (HJT-sRNA-m7 probe: 5′-[…]-3′ (SEQ ID NO: 27), Scrambled probe: 5′-[…]-3′ (SEQ ID NO: 28), U6 probe: 5′-[…]-3′ (SEQ ID NO: 29)) to the hybridization buffer (the concentration of RNA probes was 0.1-0.2 ng/μ1), denature at 85° C. for 5 min, and quickly place it on ice. […]
as §1

[1] = system: 3′UTRs of their target genes; assay: Luciferase with wild-type or mutated 3′UTR of target gene after lipid-mediated sRNA delivery; type: cell-based; details: FIG. 13
Description: It can be used as a means for the delivery of nucleic acid drug.

[2] = In vivo delivery of lipid nucleic acid mixture by gavage (blood and lung); parameters: species or system C57 mice; details: gavage 200 μl/animal; 6 hours after gavage; FIG. 14
Description: 1. Preparation of lipid nucleic acid mixture: the mixture of lipid No. 11 or No. 12 with nucleic acid, and the mixture of the lipid combination of No. 1/2/4/9/14/18/19/20/21/22/23/24/25/26/27/28/29/30/32, No. 3/8/10/11/12/13, and No. 6/15/16/17/31 with nucleic acid were prepared by reverse evaporation and boiling method (refer to steps 2.1-2.2).
2. Gavage were performed on 6-8 weeks old male C57 mice: 200 μl/aminal, grouped as follows:
(1) Control group (free uptake group): no treatment or HJT-sRNA-m7 was given by gavage;
(2) Lipid No. 11 (18:0/18:2) group: lipid No. 11 (18:0/18:2) or a mixture of lipid No. 11 (18:0/18:2) and HJT-sRNA-m7 were given by gavage;
(3) Lipid No. 12 (16:0/18:2) group: lipid No. 12 (16:0/18:2) or a mixture of lipid No. 12 (16:0/18:2) and HJT-sRNA-m7 were given by gavage;
3. Sample collection: 6 hours after gavage, mouse whole blood (500 μl) and lung (110 mg) were collected by 1.5 mL TRIzol-LS or 3 mL TRIzol, respectively, homogenized and then frozen under −80° C. for storage.
4. […]

SMILES | abundance of sRNA in the cells (Taqman probe) (A549 cell) | localization of delivered nucleic acid (FISH) (A549 cell line) | effect on the mutated 3′UTR of target genes (Luciferase) [1] | relative expression level of the Luciferase with the wild-type 3′UTR [1] | entry of HJT-sRNA-m7 into blood and lung (RT-qPCR) [2]
CCCCC/C=C\C/C=C\CCCCCCCC(=O)O[C@H](COC(=O)CCCCCCCCCCCCCCC)COP(=O)([O-])OCC[N+](C)(C)C [No. 12, (2-{[(2R)-3-(hexadecanoyloxy)-2-[(9Z,12Z)-octadeca-9,12-dienoyloxy]propylphosphonato]oxy}ethyl)trimethylazanium] | could effectively facilitate nucleic acid molecules of different sequences entry into various cells | entered into cytoplasm and were primarily localized in cytoplasm | did not act on the mutated 3′UTR of their target genes | reduced the relative expression level of the Luciferase with the wild-type 3′UTR in the target gene | could promote entry of small fragments of nucleic acids into the blood and lung
CCCCC/C=C\C/C=C\CCCCCCCC(=O)O[C@H](COC(=O)CCCCCCCCCCCCCCCCC)COP(=O)([O-])OCC[N+](C)(C)C [No. 11, trimethyl(2-{[(2R)-2-[(9Z,12Z)-octadeca-9,12-dienoyloxy]-3-(octadecanoyloxy)propylphosphonato]oxy}ethyl)azanium] | could effectively facilitate nucleic acid molecules of different sequences entry into various cells | entered into cytoplasm and were primarily localized in cytoplasm | did not act on the mutated 3′UTR of their target genes | reduced the relative expression level of the Luciferase with the wild-type 3′UTR in the target gene | could promote entry of small fragments of nucleic acids into the blood and lung
